According to US11560385B2, “Proteasome activity enhancing compounds” (Proteostasis Therapeutics, Inc., priority 2018, dated 2023):

Biological target: USP14 (Homo sapiens (Human), UniProt P54578)
Experiment: Usp14 inhibition assay (Example 5A, A-series compounds)
Assay type: biochemical
Conditions: average value from a minimum of two experimental determinations; read-out: Usp14 IC50 Category
Excerpt: Example 5A: Usp14 Inhibition Assay
The IC50 values in the Table below represent the average value from a minimum of two experimental determinations.

USP14, sequence (P54578 whole entry, looked up): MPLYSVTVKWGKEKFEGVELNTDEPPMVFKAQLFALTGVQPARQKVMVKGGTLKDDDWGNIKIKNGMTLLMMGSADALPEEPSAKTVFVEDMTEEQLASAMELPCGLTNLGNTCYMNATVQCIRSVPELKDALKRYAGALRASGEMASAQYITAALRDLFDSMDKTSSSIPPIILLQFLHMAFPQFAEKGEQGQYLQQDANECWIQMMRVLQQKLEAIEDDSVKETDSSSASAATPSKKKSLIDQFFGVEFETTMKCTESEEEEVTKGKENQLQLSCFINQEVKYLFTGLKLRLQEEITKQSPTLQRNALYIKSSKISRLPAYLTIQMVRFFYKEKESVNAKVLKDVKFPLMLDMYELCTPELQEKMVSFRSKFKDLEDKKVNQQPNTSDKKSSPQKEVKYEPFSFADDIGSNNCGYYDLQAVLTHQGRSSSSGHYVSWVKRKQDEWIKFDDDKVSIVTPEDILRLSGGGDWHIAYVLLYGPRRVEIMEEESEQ

SMILES	IC50 [nM]
Cc1c(C(=O)CN2[C@@H]3CC[C@H]2C[C@H](O)C3)c2ccc(CCC3=NCCN3C)cc2n1-c1ccc(Cl)cc1 [Example 28A, 1-(1-(4-Chlorophenyl)-2-methyl-6-(2-(1-methyl-4,5-dihydro-1H-imidazol-2-yl)ethyl)-1H-indol-3-yl)-2-((1R,3S,5S)-3-hydroxy-8-azabicyclo[3.2.1]octan-8-yl)ethan-1-one]	< 50
Cc1c(C(=O)CN2C3CCC2CC3)c2ccc(CC#N)cc2n1-c1ccc(Cl)cc1 [Example 30A]	50 to 100
Cc1c(C(=O)CN2C3CCC2CC(O)C3)c2ccc(CCS(=O)(=O)C3CC3)cc2n1-c1ccc(Cl)cc1 [Example 23A, 1-(1-(4-Chlorophenyl)-6-(2-(cyclopropylsulfonyl)ethyl)-2-methyl-1H-indol-3-yl)-2-((1R,3R,5S)-3-hydroxy-8-azabicyclo[3.2.1]octan-8-yl)ethan-1-one]	< 50
Cc1c(C(=O)CN2C3CCC2CC3)c2ccc(CCS(C)(=O)=O)cc2n1-c1ccc(Cl)cc1 [Example 1A, 2-(7-Azabicyclo[2.2.1]heptan-7-yl)-1-(1-(4-chlorophenyl)-2-methyl-6-(2-(methylsulfonyl)ethyl)-1H-indol-3-yl)ethan-1-one]	< 50
Cc1c(C(=O)CN2C3CCC2[C@@H](O)C3)c2ccc(CCC#N)cc2n1-c1ccc(Cl)cc1 (mixture of isomers) [Example 10A, (±)-3-(1-(4-Chlorophenyl)-3-(2-((2S)-2-hydroxy-7-azabicyclo[2.2.1]heptan-7-yl)acetyl)-2-methyl-1H-indol-6-yl)propanenitrile]	< 50
Cc1c(C(=O)CN2C3CCC2C(O)C3)c2ccc(CC3COC3)cc2n1-c1ccc(Cl)cc1 (stereo in doubt) [Example 13A, 1-(1-(4-Chlorophenyl)-2-methyl-6-(oxetan-3-ylmethyl)-1H-indol-3-yl)-2-((1R,2R,4S)-2-hydroxy-7-azabicyclo[2.2.1]heptan-7-yl)ethan-1-one]	< 50
Cc1c(C(=O)CN2C3CCC2CC(O)C3)c2ccc(CCC#N)cc2n1-c1ccc(Cl)cc1 [Example 20A, 3-(1-(4-Chlorophenyl)-3-(2-((1R,3R,5S)-3-hydroxy-8-azabicyclo[3.2.1]octan-8-yl)acetyl)-2-methyl-1H-indol-6-yl)propanenitrile]	> 100
Cc1c(C(=O)CN2C3CCC2CC(O)C3)c2ccc(CCC3=NCCN3C)cc2n1-c1ccc(Cl)cc1 [Example 29A, 1-(1-(4-Chlorophenyl)-2-methyl-6-(2-(1-methyl-4,5-dihydro-1H-bimidazol-2-yl)ethyl)-1H-indol-3-yl)-2-((1R,3R,5S)-3-hydroxy-8-azabicyclo[3.2.1]octan-8-yl)ethan-1-one]	< 50
Cc1c(C(=O)CN2C3CCCC2CC3)c2ccc(CCC#N)cc2n1-c1ccc(Cl)cc1 [Example 33A, 3-(3-(2-(8-Azabicyclo[3.2.1]octan-8-yl)acetyl)-1-(4-chlorophenyl)-2-methyl-1H-indol-6-yl)propanenitrile]	< 50
CO[C@H]1CC2CCC1N2CC(=O)c1c(C)n(-c2ccc(Cl)cc2)c2cc(CCC#N)ccc12 (mixture of isomers) [Example 15A, (±)-3-(1-(4-Chlorophenyl)-3-(2-((2S)-2-methoxy-7-azabicyclo[2.2.1]heptan-7-yl)acetyl)-2-methyl-1H-indol-6-yl)propanenitrile]	< 50
Cc1c(C(=O)CN2[C@@H]3CC[C@H]2C[C@H](O)C3)c2ccc(CCS(=O)(=O)C3CC3)cc2n1-c1ccc(Cl)cc1 [Example 24A, 1-(1-(4-Chlorophenyl)-6-(2-(cyclopropylsulfonyl)ethyl)-2-methyl-1H-indol-3-yl)-2-((1R,3s,5S)-3-hydroxy-8-azabicyclo[3.2.1]octan-8-yl)ethan-1-one]	50 to 100
Cc1c(C(=O)CN2C3CCC2CC(O)C3)c2ccc(CC3COC3)cc2n1-c1ccc(Cl)cc1 [Example 27A, 1-(1-(4-Chlorophenyl)-2-methyl-6-(oxetan-3-ylmethyl)-1H-indol-3-yl)-2-((1R,3S,5S)-3-hydroxy-8-azabicyclo[3.2.1]octan-8-yl)ethan-1-one]	> 100
Cc1c(C(=O)CN2C3CCC2CC3)c2ccc(CS(C)(=O)=O)cc2n1-c1ccc(Cl)cc1 [Example 3A, 2-(7-Azabicyclo[2.2.1]heptan-7-yl)-1-(1-(4-chlorophenyl)-2-methyl-6-((methylsulfonyl)methyl)-1H-indol-3-yl)ethan-1-one]	50 to 100
